Test results as given in patent US8338475B2, “Anti-proliferative pharmaceutical composition” (BioCis Pharma Oy, priority 2003, dated 2012).

How the values were obtained:
[1] = tested on: cell lines; experiment: Proliferation assay, statements on the cell lines as a group; type: cell-based, human; conditions: all three studied transformed cell lines; 44 h; pH 6.5 (FIG. 4)
Description: The cells were cultured for 44 h with or without 2 μM camptothecin (CPT) at pH 6.5 or 7.4 conditions. After a 2-h incubation with the proliferation assay reagent, the absorbance at 490 nm was recorded. Cells were cultured in a density of 15,000 cells (K562, HT-1080, HK293) or 75,000 cells (the other cells) in a volume of 150 μl.
Three cell lines were cultured with cis-UCA and/or 1 μM camptothecin at a density of […] per well (100 μl) for 44 h in pH 6.5 medium. Blank wells with all the cis-UCA concentrations but without cells were included and their absorbance subtracted from those of the corresponding test wells.
Transformed tumour cell lines WM 266-4 and A2058 (cutaneous melanoma), HT-1080 (epithelial fibrosarcoma), HeLa (epithelial adenocarcinoma of cervix), HK293 (kidney epithelial cells) and non-transformed cell line HSF (skin fibroblast from a healthy volunteer donor) of human origin have been described earlier (Li et al. 2003). […]
The proliferation activity of cultured cell lines was quantified in flat-bottom 96-well plates with a modified colorimetric assay based on a tetrazolium derivative (CellTiter 96 Aqueous One Solution Cell Proliferation Assay, Promega). The cells were cultured in the presence of camptothecin and/or cis-UCA for 20 to 92 h, then the proliferation reagent was added for 2 h, and the absorbance at 490 nm was measured in a plate reader. […]

[2] = tested on: A2058 cells; experiment: Monitoring of intracellular pH (BCECF, flow cytometry), A2058 cells; type: cell-based, human
Description: (§1) The cells were labelled with BCECF and placed in pH-adjusted buffer solutions with or without various concentrations of cis-UCA. Left panels, calibration of BCECF fluorescence intensity of nigericin-treated cells in high-potassium buffer as a function of buffer pH. Right panels, intracellular pH values in buffers with or without various concentrations of cis-UCA. All test buffers were adjusted to pH 7.4 (%) or pH 6.5 (+) after the addition of cis-UCA. Results were calculated using the corresponding calibration curve on the left.
(§2) Intracellular pH in the cell lines in the presence of cis-UCA was measured with the pH-sensitive fluorescent dye 2′,7′-bis-(2-carboxyethyl)-5-(and-6)-carboxyfluorescein (BCECF, acetoxymethyl ester; Molecular Probes, Leiden, The Netherlands) by flow cytometry. Two million cells were incubated in 5 ml DMEM medium (Invitrogen), pH 7.4, containing 0.35 μM BCECF at 37° C. for 30 min, washed once in sodium phosphate buffer (50 mM NaH2PO4/Na2HPO4, 43 mM NaCl), pH 7.4, and resuspended in 0.3 ml saline. Twenty μl of the cell suspension was pipetted into flow cytometry tubes. […]
(§3) Calibration of intracellular pH in situ was performed using the K^+/H^+ ionophore nigericin (Molecular Probes) in high-potassium buffers. […] Exact intracellular pH values were calculated from mean BCECF fluorescence intensities by reference with nigericin-clamped calibration cells. […]

[3] = tested on: A2058 tumours; experiment: Haematoxylin/eosin staining of tumour sections (necrosis); type: in vivo, SCID/SCID mice; conditions: tumours collected after 16 days; 30 mM cis-UCA, 1 μM CPT intratumoural
Excerpt: After 16 days from the first injection, all the animals were sacrificed with CO2, and the tumours were collected and fixed in formalin for further studies. In groups A, C, and D, one mouse was sacrificed before the end of the experiment because of poor development of the tumour (no measurable tumour at day 0). One animal in group B was sacrificed prematurely after it had severly scratched the tumour. Data from these animals were not included in the calculation of the tumour size results. All the removed animals were female mice. Immunohistochemical data was obtained also from the removed mice except from group B. The experiments were conducted under a protocol approved by the local ethics committee.
Paraffin sections of the tumours were stained with haematoxylin/eosin following standard procedures for an overall picture. Ki67 was stained to detect the amount of proliferating cells. The staining procedure for the Ki67 primary antibody (Dako, Klostrup, Denmark) at 1:50 dilution and secondary antibody (StreptABComplex/HRP Duet Mouse/Rabbit, Dako) at 1:100 dilution followed the instructions provided by the manufacturer. Two sections from each tumour was examined.

[4] = tested on: A2058 (cutaneous melanoma); experiment: Proliferation assay (CellTiter 96), A2058 cells; type: cell-based, human
Description: The cells were cultured in triplicate with or without 2 μM camptothecin (CPT) or 10 mM cis-UCA in a density of 15,000 cells per […]. A, Cells taken from normal pH 7.4 cultures to test conditions at pH 6.5. B, Cells cultured in low pH 6.7 adaptation medium for 3 d, then tested at pH 6.5. C, Cells cultured and tested at pH 7.4.
Proliferation was measured in a 44-h assay at pH 6.5 with 30 μM to 30 mM cis-UCA and 2 μM camptothecin. Both proliferation (A) and calculated percentage inhibition data (B) are presented.
Transformed tumour cell lines WM 266-4 and A2058 (cutaneous melanoma), HT-1080 (epithelial fibrosarcoma), HeLa (epithelial adenocarcinoma of cervix), HK293 (kidney epithelial cells) and non-transformed cell line HSF (skin fibroblast from a healthy volunteer donor) of human origin have been described earlier (Li et al. 2003). The K562 (chronic myelogenous leukemia) cells were purchased from American Type Culture Collection.
The cells were maintained in logarithmic growth phase in IMDM medium (Invitrogen, Paisley, UK) supplemented with 10% fetal calf serum and antibiotics in a humidified incubator at +37° C., 5% CO2. The adherent cells lines were harvested for experiments with 0.25% trypsin-EDTA in PBS for 5 min and then resuspended and washed in medium. After counting of viable cells, 15,000 to 75,000 cells were transferred into flat-bottom 96-well cell culture plates in a volume of 100 or 150 μl.
The proliferation activity of cultured cell lines was quantified in flat-bottom 96-well plates with a modified colorimetric assay based on a tetrazolium derivative (CellTiter 96 Aqueous One Solution Cell Proliferation Assay, Promega). The cells were cultured in the presence of camptothecin and/or cis-UCA for 20 to 92 h, then the proliferation reagent was added for 2 h, and the absorbance at 490 nm was measured in a plate reader. Blank absorption values in wells containing medium without cells were subtracted before comparison analysis.
The cell lines were tested in a 44-h culture at pH 6.5 with or without 2 μM camptothecin and 10 mM cis-UCA at 15,000 cells per 100 μl total volume. […] In order to further characterise the effective anti-proliferative concentration range of cis-UCA, proliferation was measured in a 44-h assay at pH 6.5 with cis-UCA concentration ranging from 30 μM to 30 mM.

[5] = tested on: HeLa cells; experiment: Monitoring of intracellular pH (BCECF, flow cytometry), HeLa cells; type: cell-based, human
Description: as §1, §2, §3

[6] = extracellular pH 6.5, highest cis-UCA concentration (30 mM)
[7] = extracellular pH 7.4, cis-UCA up to 30 mM

## O=C(O)/C=C\c1c[nH]cn1 [cis-UCA, cis-urocanic acid]
[1]
  concentration at which proliferation was inhibited: ≥ 3 mM
[2]; [6]
  decrease of intracellular pH: about 0.25 pH units
[2]; [7]
  intracellular pH with escalating concentrations: remained almost constant
[3]
  Necrosis (histological sections with haematoxylin/eosin staining): Dead cells and large necrotic areas were detected and yes
[4]; 10 mM cis-UCA alone, cells from pH 7.4 cultures tested at pH 6.5, 92 h (FIG. 2A)
  percentage inhibition of proliferation: 83%
[4]; 10 mM cis-UCA, cells adapted to pH 6.7 for 3 days, tested at pH 6.5, 92 h (FIG. 2B)
  percentage inhibition of proliferation: 87%
[4]; 44-h assay at pH 6.5, 30 μM to 30 mM tested (FIG. 3)
  concentration required to produce measurable inhibition of proliferation: at least 3 mM
[4]; pH 6.5, 44 h, cis-UCA 10 mM, CPT 2 μM, 15,000 cells per 100 μl
  Inhibition of proliferation (mean percentage inhibition ± SD compared with untreated control): 45 ± 4.4%
[5]; [6]
  decrease of intracellular pH: about 0.25 pH units
[5]; [7]
  intracellular pH with escalating concentrations: remained almost constant
